Measured values from patent US10597388B2, “Pyridazinone herbicides” (FMC CORPORATION, priority 2014, dated 2020).

Experiments:
Type in all cases: in vivo
[1] = system: barnyardgrass (Echinochloa crus-galli); experiment: Test A greenhouse herbicide test, pre- and postemergence
In short: (§1)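 Seeds in loam–sand blend received a preemergence directed soil spray; plants at 2–10 cm, one- to two-leaf stage, received postemergence sprays. Compounds in a non-phytotoxic solvent with surfactant. After about 10 d in a greenhouse, injury rated visually versus untreated controls on a 0–100 scale (100 = complete control).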

corn (Zea mays) = experiment: as above; conditions: Postemergence; for Plant response rating, Corn: 125 g ai/ha; for Corn plant response rating: 500 g ai/ha, 0 to 100 scale, 0 is no effect, 100 is complete control
In short: as §1

[2] = system: foxtail, giant (giant foxtail, Setaria faberii); experiment: as above
In short: as §1

kochia (Kochia scoparia) [3] = experiment: as above
In short: as §1

[4] = system: pigweed (Amaranthus retroflexus); experiment: as above
In short: as §1

[5] = system: ragweed (common ragweed, Ambrosia elatior); experiment: as above
In short: as §1

[6] = system: ryegrass, Italian (Italian ryegrass, Lolium multiflorum); experiment: as above
In short: as §1

[7] = system: wheat (Triticum aestivum); experiment: as above; conditions: Postemergence; for Plant response rating, Wheat: 125 g ai/ha, 0 to 100 scale where 0 is no effect and 100 is complete control; for Wheat plant response rating: 500 g ai/ha, 0 to 100 scale, 0 is no effect, 100 is complete control
In short: as §1

[8] = system: blackgrass (Alopecurus myosuroides); experiment: Test A greenhouse herbicide test, postemergence; conditions: for Plant response rating, Blackgrass: 125 g ai/ha; for Blackgrass plant response rating: 500 g ai/ha, 0 to 100 scale, 0 is no effect, 100 is complete control
In short: (§2)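 Pot-grown plants (loam soil/sand blend), 2–10 cm tall at the one- to two-leaf stage, received postemergence sprays of formulated test chemical. After about 10 d in the greenhouse, injury was rated visually against untreated controls on a 0 (no effect) to 100 (complete control) scale.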

[9] = system: galium (catchweed bedstraw, Galium aparine); experiment: Test A greenhouse herbicide test, postemergence; conditions: for Plant response rating, Galium: 125 g ai/ha; for Galium plant response rating: 500 g ai/ha, 0 to 100 scale, 0 is no effect, 100 is complete control
In short: as §2

kochia (Kochia scoparia) [10] = experiment: Test C greenhouse herbicide test, postemergence
In short: (§3)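 Plants grown in potting mix of peat moss, vermiculite, wetting agent and starter nutrients were sprayed postemergence at 2 to 18 cm height (1- to 4-leaf stage). After 13 to 15 d in the greenhouse, injury was visually rated against untreated controls on a 0–100 scale (0 no effect, 100 complete control).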

[11] = system: oat, wild (wild oat, Avena fatua); experiment: Test C greenhouse herbicide test, postemergence
In short: as §3

[12] = Postemergence, 125 g ai/ha, visual rating after approx. 10 d, 0 to 100 scale (0 no effect, 100 complete control)
[13] = Postemergence, 500 g ai/ha, 0 to 100 scale, 0 is no effect, 100 is complete control
[14] = Preemergence, 125 g ai/ha, 0 to 100 scale where 0 is no effect and 100 is complete control
[15] = Preemergence, 500 g ai/ha, 0 to 100 scale, 0 no effect, 100 complete control
[16] = visual rating after approx. 10 d, 0 to 100 scale (0 no effect, 100 complete control)
[17] = Postemergence, 125 g ai/ha, 0 to 100 scale where 0 is no effect and 100 is complete control
[18] = Postemergence, 31 g ai/ha, 0 to 100 scale (0 no effect, 100 complete control)
[19] = Postemergence, 125 g ai/ha, scale 0 to 100, 0 is no effect, 100 is complete control
[20] = Postemergence, 250 g ai/ha, scale 0 to 100, 0 no effect, 100 complete control, 13 to 15 d
[21] = postemergence, 62 g ai/ha, scale 0 to 100, 0 no effect, 100 complete control
[22] = 0 to 100 scale where 0 is no effect and 100 is complete control
[23] = Preemergence, 500 g ai/ha, 0 to 100 scale where 0 is no effect and 100 is complete control

| SMILES | Barnyardgrass plant response rating [1, 13] | Barnyardgrass plant response rating [1, 14] | Plant response rating, Barnyardgrass [1, 15] | Corn plant response rating (corn (Zea mays)) | Foxtail, Giant plant response rating [2, 13] | Foxtail, Giant plant response rating [2, 14] | Kochia plant response rating (kochia (Kochia scoparia) [3]; [13]) | Kochia plant response rating (kochia (Kochia scoparia) [3]; [14]) | Pigweed plant response rating [4, 13] | Pigweed plant response rating [4, 14] | Ragweed plant response rating [5, 13] | Ragweed plant response rating [5, 14] | Plant response rating, Ryegrass, Italian [6, 17] | Ryegrass, Italian plant response rating [6, 13] | Ryegrass, Italian plant response rating [6, 14] | Plant response rating, Wheat [7] | Wheat plant response rating [7] | Blackgrass plant response rating [8] | Galium plant response rating [9] | Plant response rating, Kochia (kochia (Kochia scoparia) [10]; [19]) | other results |
| --- | --- | --- | --- | --- | --- | --- | --- | --- | --- | --- | --- | --- | --- | --- | --- | --- | --- | --- | --- | --- | --- |
| COc1nn(C)c(=O)c(-c2c(C)sc3ccccc23)c1O [Compound 33] | 90 | 20 | 90 | 10 | 90 | 50 | 100 | 30 | 70 | 20 | 90 | 80 | 50 | 70 | 20 | 0 | 0 | 40 | 100 | 40 | Plant response rating, Barnyardgrass [1, 12]: 40; Plant response rating, Corn (corn (Zea mays); [16]): 0; Plant response rating, Foxtail, Giant [2, 12]: 40; Plant response rating, Foxtail, Giant [2, 15]: 70; Plant response rating, Kochia (kochia (Kochia scoparia) [3]; [12]): 90; Plant response rating, Kochia (kochia (Kochia scoparia) [3]; [15]): 80; Plant response rating, Pigweed [4, 12]: 40; Plant response rating, Pigweed [4, 15]: 20; Plant response rating, Ragweed [5, 12]: 90; Plant response rating, Ragweed [5, 15]: 100; Plant response rating, Ryegrass, Italian [6, 15]: 60; Plant response rating, Blackgrass [8, 16]: 10; Plant response rating, Galium [9, 16]: 90; Kochia plant response rating (kochia (Kochia scoparia) [10]; [18]): 20; Plant response rating, Kochia (kochia (Kochia scoparia) [10]; [20]): 50; Kochia plant response rating (kochia (Kochia scoparia) [10]; [21]): 5; Oat, Wild plant response rating [11, 18]: 35; Plant response rating, Oat, Wild [11, 19]: 40; Plant response rating, Oat, Wild [11, 20]: 45; Oat, Wild plant response rating [11, 21]: 30 |
| COC(=O)Oc1c(C)nn(C)c(=O)c1-c1c(C)sc2c(C)cc(C)cc12 [Compound 81] | 90 | 90 | 100 | 0 | 100 | 100 | 100 | 30 | 100 | 100 | 100 | 90 | 100 | 100 | 100 | 0 | 0 | 90 | 100 | 80 | Plant response rating, Barnyardgrass [1, 17]: 30; Plant response rating, Corn (corn (Zea mays); [22]): 0; Plant response rating, Foxtail, Giant [2, 17]: 90; Plant response rating, Foxtail, Giant [2, 23]: 100; Plant response rating, Kochia (kochia (Kochia scoparia) [3]; [17]): 60; Plant response rating, Kochia (kochia (Kochia scoparia) [3]; [23]): 100; Plant response rating, Pigweed [4, 17]: 100; Plant response rating, Pigweed [4, 23]: 100; Plant response rating, Ragweed [5, 17]: 90; Plant response rating, Ragweed [5, 23]: 100; Plant response rating, Ryegrass, Italian [6, 23]: 100; Plant response rating, Blackgrass [8, 22]: 90; Plant response rating, Galium [9, 22]: 100; Plant response rating, Kochia (kochia (Kochia scoparia) [10]; [20]): 80; Kochia plant response rating (kochia (Kochia scoparia) [10]; [21]): 75; Plant response rating, Oat, Wild [11, 19]: 95; Plant response rating, Oat, Wild [11, 20]: 95; Oat, Wild plant response rating [11, 21]: 90 |
| Cc1ccc2ccccc2c1-c1c(O)c(C)nn(C)c1=O [Compound 59] | 90 | 80 | 100 | 60 | 100 | 90 | 100 | 90 | 100 | 100 | 100 | 90 | 100 | 100 | 90 | 50 | 100 | 100 | 100 | 85 | Plant response rating, Barnyardgrass [1, 17]: 80; Plant response rating, Corn (corn (Zea mays); [22]): 20; Plant response rating, Foxtail, Giant [2, 17]: 90; Plant response rating, Foxtail, Giant [2, 15]: 100; Plant response rating, Kochia (kochia (Kochia scoparia) [3]; [17]): 100; Plant response rating, Kochia (kochia (Kochia scoparia) [3]; [15]): 90; Plant response rating, Pigweed [4, 17]: 100; Plant response rating, Pigweed [4, 15]: 100; Plant response rating, Ragweed [5, 17]: 90; Plant response rating, Ragweed [5, 15]: 100; Plant response rating, Ryegrass, Italian [6, 15]: 100; Plant response rating, Blackgrass [8, 22]: 90; Plant response rating, Galium [9, 22]: 100; Kochia plant response rating (kochia (Kochia scoparia) [10]; [18]): 95; Plant response rating, Kochia (kochia (Kochia scoparia) [10]; [20]): 90; Kochia plant response rating (kochia (Kochia scoparia) [10]; [21]): 85; Oat, Wild plant response rating [11, 18]: 80; Plant response rating, Oat, Wild [11, 19]: 90; Plant response rating, Oat, Wild [11, 20]: 98; Oat, Wild plant response rating [11, 21]: 75 |
